Holding throughout (assay type): functional
In one experiment the test system is Staphylococcus aureus. The experiment in a line: Antimicrobial activity against Staphylococcus aureus ATCC 6538 after 24 hrs by twofold serial dilution method. As to conditions: ATCC 6538, 24 h.
A further experiment concerns Bacillus subtilis. Description: Antimicrobial activity against Bacillus subtilis ATCC 6633 after 24 hrs by twofold serial dilution method. Conditions: ATCC 6633, 24 h.
Experiment [1] deals with Mycolicibacterium smegmatis. The experiment in a line: Antimicrobial activity against Mycobacterium smegmatis ATCC 607 after 48 hrs by twofold serial dilution method. Conditions: ATCC 607, 48 h.
A further experiment has as its system P388. The experiment in a line: Cytotoxicity against mouse P388 cells after 48 hrs. As to conditions: P388, 48 h, read-out: ED50 (the source's name).
Another experiment deals with KB. Description: Cytotoxicity against human KB cells after 72 hrs. As to conditions: read-out: ED50 (the source's name).
The nature of experiment [2]: Cytotoxicity against human breast cancer cells after 72 hrs. Conditions: Cancer cell lines, read-out: ED50 (the source's name).
Experiment [3] in a line: Cytotoxicity against human colon cancer cells after 72 hrs. As to conditions: Cancer cell lines, read-out: ED50 (the source's name).
Experiment [4] in a line: Cytotoxicity against human lung cancer cells after 72 hrs. As to conditions: Cancer cell lines, read-out: ED50 (the source's name).
Experiment [5] in a line: Cytotoxicity against human melanoma cells after 72 hrs. Conditions: Melanoma cell, read-out: ED50 (the source's name).
Another experiment has as its system Pseudomonas aeruginosa. The experiment in a line: Antimicrobial activity against Pseudomonas aeruginosa after 48 hrs by twofold serial dilution method.
For a further experiment, the system named is Escherichia coli. Description: Antimicrobial activity against Escherichia coli after 48 hrs by twofold serial dilution method.

Structures are written as SMILES. Values after ≈ are worked out from the molar mass of the structure shown.

Take `CCC(=O)C1=C(O)C(C)(C)C(O)=C(CC2=C(O)C(C)(C)C(O)=C(C(=O)CC)C2=O)C1=O`: the MIC is 50 µg/mL (≈ 116 µM) against Staphylococcus aureus; 12.5 µg/mL (≈ 28.9 µM) in the experiment on Bacillus subtilis; 50 µg/mL (≈ 116 µM) in experiment [1]; greater than 100 µg/mL in the experiment with Pseudomonas aeruginosa; greater than 100 µg/mL against Escherichia coli. The EC50 (in the experiment with P388; with KB; in experiment [2]; in experiment [3]; in experiment [4]; in experiment [5]) was greater than 50 µg/mL in each case.

Regarding `CC(=O)C1=C(O)C(C)(C)C(O)=C(CC2=C(O)C(C)(C)C(O)=C(C(C)=O)C2=O)C1=O`, the minimum inhibitory concentration (MIC) was 100 µg/mL (≈ 247 µM) in the experiment with Staphylococcus aureus; 50 µg/mL (≈ 124 µM) with Bacillus subtilis; 100 µg/mL (≈ 247 µM) in [1]; greater than 100 µg/mL with Pseudomonas aeruginosa; greater than 100 µg/mL in the experiment on Escherichia coli. Also, the EC50 (with P388; in the experiment on KB; in experiment [2]; in experiment [3]; in [4]; in experiment [5]) was greater than 50 µg/mL in each case.

Consider `CCC(=O)C1=C(O)C(C)(C)C(O)=C(Cc2c(O)c3c(c(C(=O)CC)c2O)OC(C)(C)C=C3)C1=O` [DRUMMONDIN A], for which the MIC is 1.56 µg/mL (≈ 3.32 µM) against Staphylococcus aureus; 0.78 µg/mL (≈ 1.66 µM) with Bacillus subtilis; 1.56 µg/mL (≈ 3.32 µM) in [1]; greater than 100 µg/mL in the experiment on Pseudomonas aeruginosa; greater than 100 µg/mL against Escherichia coli. In addition, the EC50 in the experiment on P388 worked out at 2.1 µg/mL (≈ 4.46 µM); with KB, 4.5 µg/mL (≈ 9.56 µM); in experiment [2] it was 3.4 µg/mL (≈ 7.23 µM); in [3], 6.6 µg/mL (≈ 14 µM); in experiment [4] it was 4.5 µg/mL (≈ 9.56 µM); in [5], 8 µg/mL (≈ 17 µM).

Consider `CCC(=O)C1=C(O)C(C)(C)C(O)=C(Cc2c(O)c3c(c(C(C)=O)c2O)OC(C)(C)C=C3)C1=O` [DRUMMONDIN B], for which the MIC was 3.12 µg/mL (≈ 6.83 µM) with Staphylococcus aureus; 0.39 µg/mL (≈ 0.854 µM) in the experiment on Bacillus subtilis; 1.56 µg/mL (≈ 3.42 µM) in [1]; greater than 100 µg/mL in the experiment with Pseudomonas aeruginosa; greater than 100 µg/mL against Escherichia coli. The EC50 is 1.9 µg/mL (≈ 4.16 µM) with P388; 3.1 µg/mL (≈ 6.79 µM) with KB; 6.3 µg/mL (≈ 13.8 µM) in experiment [3]; 7 µg/mL (≈ 15.3 µM) in [4]; 5 µg/mL (≈ 11 µM) in experiment [5].

For the compound `CC(=O)C1=C(O)C(C)(C)C(O)=C(Cc2c(O)c3c(c(C(C)=O)c2O)OC(C)(C)C=C3)C1=O` [DRUMMONDIN C], the MIC with Staphylococcus aureus was 3.12 µg/mL (≈ 7.05 µM); against Bacillus subtilis it was 0.78 µg/mL (≈ 1.76 µM); in experiment [1] it was 6.25 µg/mL (≈ 14.1 µM); in the experiment with Pseudomonas aeruginosa it was greater than 100 µg/mL; with Escherichia coli, greater than 100 µg/mL. The EC50 with P388 came to 2.8 µg/mL (≈ 6.33 µM); in the experiment on KB, 8.6 µg/mL (≈ 19.4 µM); in [2] it was 5.1 µg/mL (≈ 11.5 µM); in experiment [3], 11 µg/mL (≈ 24.9 µM); in experiment [4], 8.7 µg/mL (≈ 19.7 µM); in experiment [5], 12 µg/mL (≈ 27.1 µM).

`CC(=O)C1=C(O)C(C)(CC=C(C)C)C(O)=C(Cc2c(O)c(CC=C(C)C)c(O)c(C(C)=O)c2O)C1=O` (stereo not drawn) [DRUMMONDIN F]: the MIC was 0.78 µg/mL (≈ 1.56 µM) in the experiment with Staphylococcus aureus; 0.78 µg/mL (≈ 1.56 µM) in the experiment on Bacillus subtilis; 1.56 µg/mL (≈ 3.13 µM) in experiment [1]; greater than 100 µg/mL in the experiment with Pseudomonas aeruginosa; greater than 100 µg/mL against Escherichia coli. The EC50 in the experiment on P388 is 21 µg/mL (≈ 42.1 µM); in the experiment on KB, 18 µg/mL (≈ 36.1 µM); in experiment [2], 21 µg/mL (≈ 42.1 µM); in experiment [3], 42 µg/mL (≈ 84.2 µM); in [4], 30 µg/mL (≈ 60.2 µM); in experiment [5], greater than 50 µg/mL.

As for `CN[C@@H]1[C@H](O[C@H]2[C@H](O[C@H]3[C@H](O)[C@@H](O)[C@H](N=C(N)N)[C@@H](O)[C@@H]3N=C(N)N)O[C@@H](C)[C@]2(O)C=O)O[C@@H](CO)[C@H](O)[C@H]1O` [STREPTOMYCIN], the MIC was found to be 6.25 µg/mL (≈ 10.7 µM) with Staphylococcus aureus, 0.78 µg/mL (≈ 1.34 µM) with Bacillus subtilis and 3.12 µg/mL (≈ 5.36 µM) in [1].

Broadly, the MIC is the smallest concentration in the dilution series that meets the test's criterion for growth inhibition. Read a high MIC as weaker potency.

(Values after ChEMBL document CHEMBL1147281, “Antimicrobial and cytotoxic activity of rottlerin-type compounds from Hypericum drummondii” (1989).)
